Results: patent US8399430B2, “Alkylated semi synthetic glycosaminoglycosan ethers, and methods for making and using thereof” (University of Utah Research Foundation, priority 2008, dated 2013)
“Also recorded” adds a separate entry of the source.

How the values were obtained:
[1] = molecular target: T1, P-Selectin/PSGL (Homo sapiens, UniProt P16109); test: U937 monocyte binding to P-selectin (cell binding assay); conditions: Table 2; U937 binding to P-selectin-Fc
T1 construct: purchased R&D Systems (Minneapolis, Minn.)
Procedure: (§1) Cell Binding Assays. The effect of SAGEs on binding of U937 monocytes to P-selectin or RAGE was studied in high-bind micro plates coated with 8 μg/ml protein A ([…]) in 0.2 M carbonate-bicarbonate buffer (pH 9.4). Plates were washed with phosphate buffered saline containing 1% BSA (PBS-BSA), and P-selectin-Fc or RAGE-Fc chimera (50 μL containing 1 μg) was added to each well and incubated for 2 h at room temperature or overnight at 4° C., respectively. Following incubation, wells were washed twice with PBS-BSA. […] As a negative control, 50 μL of 10 mM EDTA was added to select wells to prevent cell binding through sequestration of calcium. At the end of the incubation period, 50 μL of U937 cells (10^5 cells/well, calcein-labeled according to manufacturer's instructions) were added to each well and plates were incubated an additional 30 min at room temperature. The wells were then washed thrice with PBS, and bound cells were lysed by addition of 100 μL of Tris-TritonX-100 containing buffer. Fluorescence was measured on a microplate reader using excitation of 494 nm and emission of 517 nm.

[2] = molecular target: T2, RAGE/Mac-1 (Homo sapiens, UniProt Q15109); test: U937 monocyte binding to RAGE (cell binding assay); conditions: Table 2; U937 binding to RAGE-Fc
T2 construct: purchased R&D Systems (Minneapolis, Minn.)
Procedure: as §1

[3] = molecular target: T3, RAGE/CML-BSA (Homo sapiens, UniProt Q15109); test: Solid phase binding assay, RAGE to CML-BSA; conditions: Table 2
T3 construct: purchased R&D Systems (Minneapolis, Minn.)
Procedure: (§2) Solid phase binding assays. Solid phase binding assays were used to study the ability of SAGEs to inhibit RAGE binding to its ligands. For studies of the effect of SAGEs on RAGE binding to its ligands, polyvinyl 96-well plates were coated with 5 μg/well of specific ligand (CML-BSA, HMGB-I or S100b calgranulin). Plates were incubated overnight at 4° C. and washed thrice with PBS-0.05% Tween-20 (PBST). Separately, RAGE-Fc chimera (100 μL containing 0.5 μg/ml in PBST-0.1% BSA) was incubated with an equal volume of serially diluted SAGEs (0.001 to 1,000 μg/ml in PBST-BSA) overnight at 4° C. The following day, 50 μL of RAGE-SAGE mix was transferred to each respective ligand-coated well and incubated at 37° C. for 2 h. Wells were then washed four times with PBST. To detect bound RAGE, 50 μL of anti-RAGE antibody (0.5 μg/ml) was added to each well, the mixture was incubated for 1 h at room temperature, and wells were washed again four times with PBST. Horse-radish peroxidase conjugated secondary antibody (1:10,000 antibody dilution in PBST; 50 μL per well) was added, wells were incubated for 1 h at room temperature, and then washed once with PBST. A colorimetric reaction was initiated by addition of 50 μL of tetramethyl benzidine chromogen (TMB single solution chromogen) and terminated after 15 min by addition of 50 μL of 1 N HCl. Absorbance at 450 nm was read using an automated microplate reader.

[4] = molecular target: T4, RAGE/S100B (Homo sapiens, UniProt Q15109); test: Solid phase binding assay, RAGE to S100b calgranulin; conditions: Table 2
T4 construct: purchased R&D Systems (Minneapolis, Minn.)
Procedure: as §2

[5] = molecular target: T5, RAGE/HMGB1 (Homo sapiens, UniProt Q15109); test: Solid phase binding assay, RAGE to HMGB-1 (amphoterin); conditions: Table 2
T5 construct: purchased R&D Systems (Minneapolis, Minn.)
Procedure: as §2

[6] = molecular target: T6, human leukocyte elastase (Homo sapiens, UniProt P08246); test: Human leukocyte elastase activity assay, chromogenic substrate; format: biochemical; conditions: for Leukocyte Elastase: Table 2
T6 sequence (P08246 30-267): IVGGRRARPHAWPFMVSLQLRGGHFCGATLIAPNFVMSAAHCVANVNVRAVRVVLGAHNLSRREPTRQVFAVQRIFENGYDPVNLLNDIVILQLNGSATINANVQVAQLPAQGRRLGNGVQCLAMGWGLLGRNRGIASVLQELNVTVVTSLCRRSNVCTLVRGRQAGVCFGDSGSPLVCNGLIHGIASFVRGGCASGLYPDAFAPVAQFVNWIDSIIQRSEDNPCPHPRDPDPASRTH
Text: Enzymatic assays. […] Nat Biotech 26:669-675, 2008).

[7] = test system: ARPE-19 cells; test: AGE-induced apoptosis of ARPE-19 cells (Live/Dead stain); format: cell-based, human; conditions: AGE-BSA 25 μM, 40 h, test substance 200 μM
Procedure: The ability of AGE products to induce RPE cell apoptosis was investigated. ARPE-19 cells were grown to confluence on round coverslips, then transferred to new dishes for exposure to 25 μM AGE-BSA for 40 h. Apoptosis was then assayed with Molecular Probes Fixable Live/Dead Cell Stain Kit (LI 1101, Eugene, Oreg.). […] Nuclei are stained […] with DAPI; dead cells are stained green. A. BSA control. Some dead cells are noted at the edges of the coverslip, but live and dead cells are interspersed at the interface. B. AGE-BSA (25 μM). Significant cell death is seen around the edges, and the boundary between live and dead cells is stark. C. AGE-BSA (25 μM)+ODSH (200 μM). […] D. AGE-BSA (25 μM)+P-OSMeHA (200 μM) (GM-11 1101). […] Apoptosis appeared to advance inward from the edges of cells cultured on round cover slips. RAGE is prominently expressed in RPE cells where it may be selectively expressed on the basal membrane as in other human epithelial cells. […] In contrast, AGE in drusen, which accumulates between retinal pigment epithelium and Bruch's membrane, would have ready access to basally located RAGE, optimally positioning AGE/RAGE signaling to mediate the localized RPE apoptosis that constitutes so-called “geographic atrophy” in age-related macular degeneration. […]

[8] = test system: RAGE; test: CML-BSA-induced RAGE expression in ARPE-19 cells (immunoblot); format: cell-based, human; conditions: cells grown on CML-BSA
Text: Activated complement and RAGE induce angiogenic and pro-inflammatory signaling in cultured RPE cells. Experiments studying the biology of RAGE in cultured RPE cells using the ARPE-19 human RPE cell line were consucted. As shown in immunoblots (FIG. 17), ARPE-19 cells express at least 4 isoforms of RAGE ranging from 45-50 kDa in cell lysates, and secrete these isoforms into conditioned media. […] Because RAGE ligation activates the transcription factor NF-κB, enhanced expression of RAGE greatly promotes pro-inflammatory signaling. […] This would prevent “feed-forward” pro-inflammatory increases in RAGE expression itself by RAGE ligation.

[9] = test system: LL-37 injected skin; test: SAGE topical treatment LL-37 rosacea model; format: in vivo, Balb/c mice; conditions: topical administration
Procedure: SAGE topical treatment rosacea model. Balb/c mice were shaved […] area of skin on the back. We then began topical application of a hyaluronan-cased emollient containing 5% SAGEs (active emollient) or hyaluronic acid based emollient alone to this area of skin every 12 hours. Twenty-four hours later, we injected 40 μL of vehicle (PBS) or cationic peptide (at 320 μM concentration) subcutaneously into the shaved skin in the manner described previously. Injections and topical emollient applications were repeated every 12 h thereafter. Forty-eight hours after the initial injection (four injections in total), animals were lightly anesthetized as described previously. […] The intensity of erythema was assessed as a redness score (from 1 to 5), and the area of erythema was measured with calipers. […]
Myeloperoxidase (MPO) assay. […] Tissue MPO activity was measured using a method by Suzuki et. al. (Suzuki K, Ota H, Sasagawa S, Sakatani T, Fujikura T. Assay method for myeloperoxidase in human polymorphonuclear leukocytes. Anal Biochem 132:345-352, 1983) as modified by Young et. al. (Young J M, Spires D A, Bedord C J, Wagner B, Ballaron S J, De oung L M. The mouse ear inflammatory response to typical arachidonic acid. J Invest Dermatol 82:367-371, 1984). […] The homogenate was transferred quantitatively to a microcentrifuge tube with an additional 0.75 mL HTAB in PBS. […]

[10] = molecular target: T7, Hageman factor (Factor XII) (Homo sapiens, UniProt P00748)
T7 sequence (P00748 20-615): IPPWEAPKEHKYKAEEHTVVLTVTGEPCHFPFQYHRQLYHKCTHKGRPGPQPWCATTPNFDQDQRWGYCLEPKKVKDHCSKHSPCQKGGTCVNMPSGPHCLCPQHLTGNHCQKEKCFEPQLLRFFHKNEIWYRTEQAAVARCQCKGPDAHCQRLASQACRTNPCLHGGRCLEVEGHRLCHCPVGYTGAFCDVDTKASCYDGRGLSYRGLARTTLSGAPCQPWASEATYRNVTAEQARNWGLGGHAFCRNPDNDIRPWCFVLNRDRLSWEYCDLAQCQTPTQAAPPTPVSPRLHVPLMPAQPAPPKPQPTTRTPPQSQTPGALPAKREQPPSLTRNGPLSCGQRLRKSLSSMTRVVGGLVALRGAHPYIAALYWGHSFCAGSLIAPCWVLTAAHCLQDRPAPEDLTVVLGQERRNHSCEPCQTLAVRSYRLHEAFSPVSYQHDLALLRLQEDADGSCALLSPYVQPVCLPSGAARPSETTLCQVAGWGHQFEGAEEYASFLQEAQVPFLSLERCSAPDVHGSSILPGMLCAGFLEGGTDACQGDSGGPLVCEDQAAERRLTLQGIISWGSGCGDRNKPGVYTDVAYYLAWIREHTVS
Procedure: Enzymatic assays. […] Pooled human plasma (5 μl) was incubated with 100 μl of SAHA (0.1 to 1000 μg/ml) in 0.05 M HEPES containing Triton X-100 for 5 min at 5° C.
SAGEs were screened for their ability to stimulate intrinsic coagulation (activation of Hageman factor). Pooled human plasma was incubated with heparin or low molecular weight (Lmw) sulfated and fluoroalkylated HAs (Lmw-OSFHA-1, Lmw-OSFHA-2) and amidolytic activity was determined using the substrate D-cyclohydrotyrosyl-Gly-Arg-p-NA.

[11] = test system: human neonatal epidermal keratinocytes; test: Keratinocyte proliferation assay; format: cell-based; conditions: high molecular weight derivatives, 100 μg/ml, FIG. 8
Procedure: Fourth, SAGEs are potent inhibitors of the proliferation of human keratinocytes. In these assays human neonatal epidermal keratinocytes were cultured in the presence and absence of SAGEs or other inhibitors, and proliferation was measured by adding a dye that is reduced in direct proportion to the number of viable cells present.

[12] = test system: nHEK cells; test: Cytotoxicity (MTS); format: cell-based, human; conditions: up to 10 mg/ml

T2 sequence (Q15109 with tags, fused parts or gaps limits assumed): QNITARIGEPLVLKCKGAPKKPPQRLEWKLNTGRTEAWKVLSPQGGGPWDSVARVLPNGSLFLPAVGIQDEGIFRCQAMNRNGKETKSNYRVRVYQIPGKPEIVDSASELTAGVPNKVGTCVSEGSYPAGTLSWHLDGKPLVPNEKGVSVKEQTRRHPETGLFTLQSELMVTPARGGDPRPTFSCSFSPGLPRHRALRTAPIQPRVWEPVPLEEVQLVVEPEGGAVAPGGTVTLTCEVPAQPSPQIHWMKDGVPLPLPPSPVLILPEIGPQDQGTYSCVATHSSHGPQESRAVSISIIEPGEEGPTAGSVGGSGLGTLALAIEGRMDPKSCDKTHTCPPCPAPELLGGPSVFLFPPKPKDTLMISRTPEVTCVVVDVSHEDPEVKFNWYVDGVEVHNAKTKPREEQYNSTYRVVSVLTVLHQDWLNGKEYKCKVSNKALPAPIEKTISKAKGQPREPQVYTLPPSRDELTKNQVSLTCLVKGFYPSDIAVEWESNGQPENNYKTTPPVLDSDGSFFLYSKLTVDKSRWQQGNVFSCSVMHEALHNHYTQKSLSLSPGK
T3 sequence (Q15109 with tags, fused parts or gaps limits assumed): as above
T4 sequence (Q15109 with tags, fused parts or gaps limits assumed): as above
T1 sequence (P16109 with tags, fused parts or gaps limits assumed): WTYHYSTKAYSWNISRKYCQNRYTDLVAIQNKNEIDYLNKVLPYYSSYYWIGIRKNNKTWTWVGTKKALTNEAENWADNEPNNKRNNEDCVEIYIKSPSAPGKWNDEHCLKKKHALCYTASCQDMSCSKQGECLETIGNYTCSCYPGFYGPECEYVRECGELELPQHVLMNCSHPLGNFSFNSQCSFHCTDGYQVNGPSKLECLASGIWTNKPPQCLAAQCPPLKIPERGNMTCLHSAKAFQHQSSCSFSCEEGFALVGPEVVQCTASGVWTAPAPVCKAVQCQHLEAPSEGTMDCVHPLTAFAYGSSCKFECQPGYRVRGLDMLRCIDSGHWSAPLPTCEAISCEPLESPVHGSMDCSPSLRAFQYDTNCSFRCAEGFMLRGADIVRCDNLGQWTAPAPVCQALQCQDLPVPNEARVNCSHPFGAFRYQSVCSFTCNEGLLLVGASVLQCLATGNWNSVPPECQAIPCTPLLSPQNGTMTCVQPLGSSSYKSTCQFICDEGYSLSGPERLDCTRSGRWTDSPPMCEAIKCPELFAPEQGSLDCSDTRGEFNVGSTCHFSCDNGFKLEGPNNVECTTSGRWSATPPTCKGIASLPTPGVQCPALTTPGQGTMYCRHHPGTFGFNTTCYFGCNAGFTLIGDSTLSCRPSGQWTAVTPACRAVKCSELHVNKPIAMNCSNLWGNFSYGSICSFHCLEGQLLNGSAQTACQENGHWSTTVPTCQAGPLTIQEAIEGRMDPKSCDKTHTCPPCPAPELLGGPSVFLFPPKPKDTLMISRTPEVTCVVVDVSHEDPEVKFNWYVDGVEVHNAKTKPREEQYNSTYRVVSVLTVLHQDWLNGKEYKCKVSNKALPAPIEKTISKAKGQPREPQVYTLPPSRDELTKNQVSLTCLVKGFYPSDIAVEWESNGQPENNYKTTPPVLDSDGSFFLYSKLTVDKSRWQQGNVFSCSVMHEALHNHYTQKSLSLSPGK
T5 sequence (Q15109 with tags, fused parts or gaps limits assumed): as the sequence (Q15109 with tags, fused parts or gaps limits assumed) above

Substance	P-Selectin/PSGL [1]	RAGE/Mac-1 [2]	RAGE/CML-BSA [3]	RAGE/S100B [4]	RAGE/HMGB1 [5]	Leukocyte Elastase [6]	Hageman Factor [10]	IC50 ([6]; FIG. 4, read-out: IC50 for HLE)	AGE-induced apoptosis [7]	up-regulation of RAGE expression [8]	inflammation and MPO activities, SAGE vs. HA [9]	inhibition of keratinocyte proliferation [11]	toxicity to nHEK cells [12]
Hyaluronic Acid [HA, reference compound]	–	–	–	–	–	–	–	–	–	–	did not alleviate inflammation	–	–
P—OSFHA-1(DS 1) [GM-231101]	12.048 µg/mL	–	–	14.6 µg/mL	–	0.185 µg/mL	400 µg/mL	–	–	–	–	–	–
P—OSMeHA(DS 1) [GM-131101]	5.61 µg/mL	0.51 µg/mL	6.09 µg/mL	31.069 µg/mL	2.68 µg/mL	0.285 µg/mL	–	3.46 nM	–	–	–	less active	non-toxic
P—OSMeHA(DS 2) [GM-131201]	0.5 µg/mL	0.3 µg/mL	0.044 µg/mL	0.06 µg/mL	–	0.42 µg/mL	0.4 µg/mL	–	–	–	–	–	–

Now from value to substance, other results behind:

P-Selectin/PSGL [1]	RAGE/Mac-1 [2]	RAGE/CML-BSA [3]	RAGE/S100B [4]	RAGE/HMGB1 [5]	Leukocyte Elastase [6]	Hageman Factor [10]	IC50 ([6]; FIG. 4, read-out: IC50 for HLE)	Substance	AGE-induced apoptosis [7]	up-regulation of RAGE expression [8]	inflammation and MPO activities, SAGE vs. HA [9]	inhibition of keratinocyte proliferation [11]	toxicity to nHEK cells [12]
1.1 µg/mL	0.09 µg/mL	8.6 µg/mL	4.2 µg/mL	0.23 µg/mL	0.22 µg/mL	–	–	2-0, 3-0 desulfated heparin [ODSH, reference compound]	Apoptosis is reduced; also recorded: inhibited	prevented up-regulation of RAGE expression	–	–	–
0.126 µg/mL	28.4 µg/mL	2.579 µg/mL	8.82 µg/mL	–	0.487 µg/mL	400 µg/mL	–	P—OSFHA-1(DS 2) [GM-231201]	–	–	–	–	–
8.958 µg/mL	–	–	4.557 µg/mL	–	0.375 µg/mL	400 µg/mL	–	P—OSFHA-2(DS 1) [GM-331101]	–	–	–	–	–
–	–	1.682 µg/mL	2.28 µg/mL	–	0.353 µg/mL	40 µg/mL	–	P—OSFHA-2(DS 2) [GM-331201]	–	–	–	–	–
